# Assay results as given in patent US9394299B2, “Rilyazine derivatives and compositions for the treatment of cancer” (Warner Babcock Institute for Green Chemistry, LLC, priority 2013, dated 2016).
# “Also recorded” adds a separate entry of the source.
# What was measured:
# MALME-3M (Melanoma) = test: NCI single point 10 μM, MALME-3M; assay type: cell-based, human; conditions: 10^−5 M
# Protocol: (§1) The screening is a two-stage process, beginning with the evaluation of all compounds against 60 cell lines at a single dose of 10^−5 M.
# (§2) The human tumor cell lines of the cancer screening panel are grown in RPMI 1640 medium containing 5% fetal bovine serum and 2 mM L-glutamine. Cells are inoculated into 96 well microtiter plates in 100 μL at plating densities ranging from 5,000 to 40,000 cells/well depending on the doubling time of individual cell lines. After cell inoculation, the microtiter plates are incubated at 37° C., 5% CO2, 95% air and 100% relative humidity for 24 h prior to addition of experimental drugs. […]
# (§3) Following drug addition, the plates are incubated for an additional 48 h at 37° C., 5% CO2, 95% air, and 100% relative humidity. […] Bound stain is subsequently solubilized with 10 mM trizma base, and the absorbance is read on an automated plate reader at a wavelength of 515 nm. […]
# (§4) For the 1-dose 60 cell testing, the Growth Percent is calculated for each cell line/drug combination from the absorbance measurement for the no-drug control (C), the absorbance at time zero (Tz) and the absorbance measurement after incubation of the cells in the presence of drug (Ti): Growth Percent=[(Ti−Tz)/(C−Tz)]×100 for cell line/drug combinations for which Ti≧Tz. […]
# [1] = tested on: 60 cell lines (human tumor cell lines of the cancer screening panel); test: NCI 60 cell line screening, five point dosing (SRB); assay type: cell-based
# Protocol: (§5) RL-4 was evaluated against the 60 cell panel at five concentration levels, 10^−8 M, 10^−7 M, 10^−6 M, 10^−5 M and 10^−4 M.
# (§6) The human tumor cell lines of the cancer screening panel are grown in RPMI 1640 medium containing 5% fetal bovine serum and 2 mM L-glutamine. Cells are inoculated into 96 well microtiter plates in 100 μL at plating densities ranging from 5,000 to 40,000 cells/well depending on the doubling time of individual cell lines. After cell inoculation, the microtiter plates are incubated at 37° C., 5% CO2, 95% air and 100% relative humidity for 24 h prior to addition of experimental drugs.
# (§7) After 24 h, two plates of each cell line are fixed in situ with TCA, to represent a measurement of the cell population for each cell line at the time of drug addition Time Zero (Tz). Experimental drugs are solubilized in dimethyl sulfoxide:glycerol 9:1 at 400-fold the desired final maximum test concentration and stored frozen at −70° C. prior to use. At the time of drug addition, an aliquot of frozen concentrate is thawed and diluted to twice the desired final maximum test concentration with complete medium containing 50 μg/ml gentamicin. Additional four, 10-fold or ½ log serial dilutions are made to provide a total of five drug concentrations plus control. Aliquots of 100 μl of these different drug dilutions are added to the appropriate microtiter wells already containing 100 μl of medium, resulting in the required final drug concentrations.
# (§8) Positive control is prepared by adding the known anti-tumor agent adriamycin, NSC 123127, prepared and stored the same as the compounds for testing.
# (§9) Following drug addition, the plates are incubated for an additional 48 h at 37° C., 5% CO2, 95% air, and 100% relative humidity. For adherent cells, the assay is terminated by the addition of cold TCA. Cells are fixed in situ by the gentle addition of 50 μl of cold 50% (w/v) TCA (final concentration, 10% TCA) and incubated for 60 minutes at 4° C. The supernatant is discarded, and the plates are washed five times with tap water and air dried. Sulforhodamine B (SRB) solution (100 μl) at 0.4% (w/v) in 1% acetic acid is added to each well, and plates are incubated for 10 minutes at room temperature. After staining, unbound dye is removed by washing five times with 1% acetic acid and the plates are air dried. Bound stain is subsequently solubilized with 10 mM trizma base, and the absorbance is read on an automated plate reader at a wavelength of 515 nm. For suspension cells, the methodology is the same except that the assay is terminated by fixing settled cells at the bottom of the wells by gently adding 50 μl of 80% TCA (final concentration, 16% TCA).
# (§10) The percentage growth is calculated at each of the five drug concentrations levels using the seven absorbance measurements, namely absorbance at time zero (Tz), absorbance of control after incubation (C), and absorbance of test sample after incubation in the presence of drug at each of the five concentration levels (Ti). The Growth Percent is calculated as it was for the 1 dose assay: Growth Percent=[(Ti−Tz)/(C−Tz)]×100 for cell line/drug combinations for which Ti≧Tz. Growth Percent=[(Ti−Tz)/Tz]×100 for cell line/drug combinations for which Ti<Tz.
# For the 5-dose 60 cell testing, three dose-response parameters are determined for each experimental agent. These parameters are Growth Inhibition of 50% (GI50), drug concentration resulting in Total Growth Inhibition (TGI), and concentration resulting in 50% lethality (LC50).
# Growth inhibition of 50% (GI50) is determined as the drug concentration at which Growth Percent=[(Ti−Tz)/(C−Tz)]×100=50. GI50 is the drug concentration resulting in a 50% reduction in the net protein increase compared to the increase in protein in control cells (as measured by SRB staining) during the drug incubation.
# The drug concentration resulting in total growth inhibition (TGI) is determined as the drug concentration at which Ti=Tz, which corresponds to a Growth Percent of zero. […]
# [2] = tested on: 60 cell lines (human tumor cell lines of the cancer screening panel); test: NCI 60 cell line screening, single point dosing at 10 μM (SRB); assay type: cell-based
# Protocol: as §1, §6, §7, §8, §9
# For the 1-dose 60 cell testing, the Growth Percent is calculated for each cell line/drug combination from the absorbance measurement for the no-drug control (C), the absorbance at time zero (Tz) and the absorbance measurement after incubation of the cells in the presence of drug (Ti): Growth Percent=[(Ti−Tz)/(C−Tz)]×100 for cell line/drug combinations for which Ti≧Tz. Growth Percent=[(Ti−Tz)/Tz]×100 for cell line/drug combinations for which Ti<Tz.
# Calculation of the Growth Percent by these equations allows detection of both growth inhibition (Growth Percent values between 0 and 100) and lethality (Growth Percent values less than 0). For example, a Growth Percent value of 100 means no growth inhibition. A Growth Percent value of 40 would mean 60% growth inhibition. A Growth Percent value of 0 means no net growth over the course of the experiment, or “cytostatic”, no change by growth or cell death. A Growth Percent value of −40 would mean 40% lethality. A Growth Percent value of −100 means all cells are dead.
# For 1-dose 60 cell testing, the Mean Growth Percent, Delta and Range across all 60 cell lines are also calculated. The Deviation of each cell line/drug combination from the Mean is also calculated and plotted: Deviation=Mean Growth Percent−Growth Percent […]
# COLO 205 (Colon Cancer) = test: NCI five point dosing, COLO 205; assay type: cell-based; conditions: Homo sapiens, read-out: LC50 (the source's name)
# Protocol: as §5, §2, §3
# as §10, with “Growth Percent=[(Ti−Tz)/Tz]×100 for cell line/drug combinations for which Ti<Tz.” left out
# SK-MEL-28 (Melanoma) = test: NCI single point 10 μM, SK-MEL-28; assay type: cell-based, human; conditions: 10^−5 M
# Protocol: as §1, §2, §3, §4
# [3] = five point dosing, 60 cell lines
# [4] = single dose 10^−5 M, 60 cell lines
# [5] = single point 10 μM, 60 cell lines
smiles,measurement,setting,value
"S=c1c2ncccc2c(-c2ccccn2)nn1C1CCCCC1 [RL-4, 7-cyclohexyl-5-(pyridin-2-yl)pyrido[2,3-d]pyridazine-8(7H)-thione]",Growth Percent,MALME-3M (Melanoma),98.97%
same,GI50,"[1]; Homo sapiens, five point dosing 10^−8 to 10^−4 M, mean of 60 cell lines, read-out: Mean GI50 for all 60 cell lines",20 µM
same,CC50,"[1]; Homo sapiens, five point dosing up to 10^−4 M, read-out: LC50 for all other cell lines (except COLO 205)",> 100 µM
same,toxicity (in words),[1]; concentrations up to 10^−4 M,not toxic at the concentrations tested; also recorded: not observed
same,growth inhibition / anti-proliferative efficacy (in words),"[1]; five point dosing 10^−8 to 10^−4 M, 60 cell lines",significant growth inhibition across all 60 cell lines; also recorded: anti-proliferative efficacy across a range of 60 cell lines
same,log10GI50 Delta,[1]; [3],1.45
same,log10GI50 Mean,[1]; [3],−5.0
same,log10GI50 Range,[1]; [3],2.45
same,"number of cell lines in which total growth inhibition (growth percent=0, TGI) was achieved","[1]; within dosage range tested, of 60 cell lines",eight
same,GI50,"[2]; Homo sapiens, single point 10 μM, 22 of 60 cell lines, read-out: GI50 for 22 of 60 cell lines (NCI Results, single point, 10 μM)",≤ 10 µM
same,LC50,"[2]; Homo sapiens, single point 10 μM, all 60 cell lines, read-out: LC50 for all 60 cell lines tested (NCI Results, single point, 10 μM)",> 10 µM
same,Delta of Growth Percent across all cell lines,[2]; [4],52.07
same,Mean Growth Percent across all cell lines,[2]; [4],59.94%
same,Range of Growth Percent across all cell lines,[2]; [4],121.36
same,number of cell lines with Growth Percentages greater than 90%,"[2]; single dose 10^−5 M, of 60 cell lines",6
same,anti-proliferative effect / growth inhibition (in words),[2]; [5],significant growth inhibition in almost all cell lines; also recorded: has anti-proliferative effects; also recorded: showed cell growth inhibition across the screened cell lines; also recorded: significant growth inhibition in cancer cell lines
same,toxicity / cell lethality (in words),[2]; [5],relatively non-toxic; also recorded: no associated toxicity; also recorded: No Toxicity is observed
same,number of cell lines with growth inhibition ≧50%,"[2]; single point 10 μM, of 60 cell lines tested",22
same,CC50,COLO 205 (Colon Cancer),85.8 µM
same,Growth Percent,SK-MEL-28 (Melanoma),93.53%
